Assay results published in US8653096B2, “Chemokine receptor antagonists and methods of use thereof” (Millennium Pharmaceuticals, Inc., priority 2001, dated 2014).

Biological target: T1, RANTES/MIP-1α chemokine receptor (CCR1) in THP-1 cell membranes (Homo sapiens, UniProt P32246)
T1 construct: Membranes were prepared from THP-1 cells (ATCC #TIB202); host or cells: THP-1 cells (membrane preparation)
T1 sequence (P32246 1-355): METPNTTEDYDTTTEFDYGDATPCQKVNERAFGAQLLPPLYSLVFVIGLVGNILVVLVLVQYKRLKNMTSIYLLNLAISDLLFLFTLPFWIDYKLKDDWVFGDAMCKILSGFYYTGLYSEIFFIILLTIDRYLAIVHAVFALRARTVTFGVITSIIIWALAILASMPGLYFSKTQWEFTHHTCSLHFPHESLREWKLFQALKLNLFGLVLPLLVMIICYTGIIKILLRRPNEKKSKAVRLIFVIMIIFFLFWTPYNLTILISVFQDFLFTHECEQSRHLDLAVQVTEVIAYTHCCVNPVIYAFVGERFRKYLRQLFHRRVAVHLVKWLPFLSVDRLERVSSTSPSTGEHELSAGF
Experiment: Receptor binding assay: 125I-RANTES or 125I-MIP-1α binding to THP-1 cell membranes
Settings: inhibitor concentration required for 50% inhibition of specific binding; 125I-RANTES or 125I-MIP-1α as ligand, THP-1 cell membranes; read-out: IC50
Method: Membranes were prepared from THP-1 cells (ATCC #TIB202). Cells were harvested by centrifugation, washed twice with PBS (phosphate-buffered saline), and the cell pellets were frozen at −70 to −85° C. The frozen pellet was thawed in ice-cold lysis buffer consisting of 5 mM HEPES (N-2-hydroxyethylpiperazine-N′-2-ethane-sulfonic acid) pH 7.5, 2 mM EDTA (ethylenediaminetetraacetic acid), 5 μg/ml each aprotinin, leupeptin, and chymostatin (protease inhibitors), and 100 μg/ml PMSF (phenyl methane sulfonyl fluoride—also a protease inhibitor), at a concentration of 1 to 5×10^7 cells/ml. This procedure results in cell lysis. The suspension was mixed well to resuspend all of the frozen cell pellet. Nuclei and cell debris were removed by centrifugation of 400×g for 10 minutes at 4° C. The supernatant was transferred to a fresh tube and the membrane fragments were collected by centrifugation at 25,000×g for 30 minutes at 4° C. The supernatant was aspirated and the pellet was resuspended in freezing buffer consisting of 10 mM HEPES pH 7.5, 300 mM sucrose, 1 μg/ml each aprotinin, leupeptin, and chymostatin, and 10 μg/ml PMSF (approximately 0.1 ml per each 10^8 cells). All clumps were resolved using a minihomogenizer, and the total protein concentration was determined using a protein assay kit (Bio-Rad, Hercules, Calif., cat #500-0002). The membrane solution was then aliquoted and frozen at −70 to −85° C. until needed.
Binding Assays utilized the membranes described above. […] The binding reactions were performed in 60 to 100 μl of a binding buffer consisting of 10 mM HEPES pH 7.2, 1 mM CaCl2, 5 mM MgCl2, and 0.5% BSA (bovine serum albumin), for 60 min at room temperature. The binding reactions were terminated by harvesting the membranes by rapid filtration through glass fiber filters (GF/B or GF/C, Packard) which were presoaked in 0.3% polyethyleneimine. The filters were rinsed with approximately 600 μl of binding buffer containing 0.5 M NaCl, dried, and the amount of bound radioactivity was determined by scintillation counting in a Topcount beta-plate counter.
Specific binding is defined as the total binding minus the non-specific binding; non-specific binding is the amount of cpm still detected in the presence of excess unlabeled Rantes or MIP-1α.

Row | Compound | IC50 [µM]
1 | COc1ccc2c(c1)C(=CCCN1CCC(O)(c3ccccc3)CC1)c1cccnc1CO2 [Example 59, 1-[3-(5,11-Dihydro-7-methoxy[1]benzoxepino[2,3-b]pyridin-5-ylidene)propyl]piperidin-4-phenyl-4-ol] | < 1
2 | O=C(O)COc1ccc2c(c1)C(=CCCN1CCC(c3ccc(Cl)cc3)CC1)c1cccnc1CO2 [Example 154] | < 1
3 | CCN(CCc1ccc(Cl)cc1)[C@@H]1CCN(CCC=C2c3cc(C(C)(C)O)ccc3OCc3ncccc32)C1 [Example 528] | < 10
4 | OC1(c2ccc(Cl)cc2)CCN(CCC=C2c3ccccc3COc3ccccc32)CC1 [Example 2, 4-(4-Chlorophenyl)-1-[3-(6,11-dihydrodibenz[b,e]oxepin-11-ylidene)propyl]piperidin-4-ol] | < 1
5 | 4-(4-Chlorophenyl)-1-[3-(5,11-dihydro-7-morpholinocarbonylmethyloxy[1]benzoxepino[2,3-b]pyridin-5-ylidene)propyl]piperidin-4-ol [Example 135] | < 1
6 | CC(C)(O)c1ccc2c(c1)C(=CCCN1CCC(N(Cc3ccc(Cl)cc3)S(C)(=O)=O)C1)c1cccnc1CO2 (stereo not drawn) [Example 571, N-(4-Chloro-benzyl)-N-(1-{3-[7-(1-hydroxy-1-methyl-ethyl)-11H-10-oxa-1-aza-dibenzo[a,d]cyclohepten-5-ylidene]-propyl}-pyrrolidin-3-yl)-methanesulfonamide] | < 10
7 | CC(C)(O)c1ccc2c(c1)C(=CCCN1CCC(C(=O)O)(c3ccc(Cl)cc3)CC1)c1cccnc1CO2 [Example 459, 4-(4-Chloro-phenyl)-1-{3-[7-(1-hydroxy-1-methyl-ethyl)-11H-10-oxa-1-aza-dibenzo[a,d]cyclohepten-5-ylidene]-propyl}-piperidine-4-carboxylic acid] | < 10
8 | 4-Cyano-1-[3-(5,11-dihydro-7-methoxy[1]benzoxepino[2,3-b]pyridin-5-ylidene)propyl]-4-phenylpiperidine [Example 63] | < 10
9 | 4-(4-Chlorophenyl)-1-[3-(5,11-dihydro-7-hydroxy[1]benzoxepino[2,3-b]pyridin-5-ylidene)propyl]piperidine [Example 151] | < 1
10 | 4-(4-Chlorophenyl)-1-[3-(5,11-dihydro-7-cyclohexyloxycarbonyl-[1]benzoxepino[2,3-b]pyridin-5-ylidene)propyl]piperidine-4-ol [Example 425] | < 1
11 | 4-(4-Chlorophenyl)-1-[3-(5,11-dihydro-7-(2-hydroxy)ethyl[1]benzoxepino[2,3-b]pyridin-5-ylidene)propyl]piperidin-4-ol [Example 280] | < 1
12 | CC1(C)CN(CCC=C2c3cc(OCCN4CCOCC4)ccc3OCc3ncccc32)CCC1(O)c1ccc(Cl)cc1 (stereo not drawn) [Example 559, 4-(4-Chloro-phenyl)-3,3-dimethyl-1-{3-[7-(2-morpholin-4-yl-ethoxy)-11H-10-oxa-1-aza-dibenzo[a,d]cyclohepten-5-ylidene]-propyl}-piperidin-4-ol] | < 1
13 | COC(=O)C1CN(CCC=C2c3cc(C(C)(C)O)ccc3OCc3ncccc32)CCN1c1ccc(Cl)cc1 (stereo not drawn) [Example 546, 1-(4-Chloro-phenyl)-4-{3-[7-(1-hydroxy-1-methyl-ethyl)-11H-10-oxa-1-aza-dibenzo[a,d]cyclohepten-5-ylidene]-propyl}-piperazine-2-carboxylic acid methyl ester] | < 1
14 | CC(C)(O)c1ccc2c(c1)C(=CCCN1CC[C@@](O)(c3ccc(Cl)cc3)[C@H](C#N)C1)c1cccnc1CO2 (relative stereo) [Example 480, Cis-4-(4-Chloro-phenyl)-4-hydroxy-1-{3-[7-(1-hydroxyl-1-methyl-ethyl)-11H-10-oxa-1-aza-dibenzo[a,d]cyclohepten-5-ylidene]-propyl}-piperidin-3-carbonitrile] | < 1
15 | 4-(5-Chloro-2-keto-1-benzimidazolinyl)-1-[3-(5,11-dihydro-7-methoxy[1]benzoxepino[2,3-b]pyridin-5-ylidene)propyl]piperidine [Example 85] | < 1
